Data as given in patent US5725871A, “Drug delivery compositions comprising lysophosphoglycerolipid” (Danbiosyst UK Limited, priority 1989, dated 1998).

Details: sheep, intranasal 2.0 IU/kg insulin, LPG versus LPC
Method: The sheep were divided into 4 groups of 5 animals each. Group 1 received 2.0 IU/kg insulin together with 2.0 mg/kg SMS 45/25 microspheres (Pharmacia) and 0.2 mg/kg LPC (Formulation 1) intranasally in the form of a lyophilised powder. A sheep of 50 kg thus received 100 IU of insulin together with 100 mg SMS 45/25 microspheres and 10.0 mg LPC. Group 2 received 2.0 IU/kg insulin together with 2.0 mg/kg SMS 45/25 microspheres and 0.2 mg/kg LPG Formulation 2) intranasally in the form of a lyophilised powder. A sheep of 50 kg thus received 100 IU of insulin together with 100 mg SMS 45/25 microspheres and 10.0 mg LPG. Group 3 received 2.0 IU/kg insulin together with 0.02 mg/kg LPC (Formulation 3) intranasally in the form of a solution at 0.01 ml/kg. A sheep of 50 kg thus received 100 IU of insulin together with 1.0 mg LPC in a volume of 0.5 ml. Group 4 received 2.0 IU/kg insulin together with 0.02 mg/kg LPG (Formulation 4) intranasally in the form of a solution at 0.01 ml/kg. A sheep of 50 kg thus received 100 IU of insulin together with 1.0 mg LPG in a volume of 0.5 ml. […]
Sedation/Blood Sampling: For the intranasal studies, the sheep were sedated by use of an i.v. dose of ketamine hydrochloride (Ketalar (Regd. T.M.), 100 mg/ml injection) at 2.25 mg/kg. […] Each blood sample was divided into two parts and analysed as in Example 1.

In the case of L-α-lysophosphatidyl-DL-glycerol [LPG], the Plasma glucose levels is reported as “lower (i.e. better) with LPG”.
